Columns and labels:
[1] = tested on: STZ induced diabetic mice; assay: Efficacy in streptozotocin (STZ) induced diabetic mice model; assay type: in vivo, mouse; settings: 5 mg/kg or 25 mg/kg for 20 days
Procedure: After acclimatization in the animal facility for one week, 6-8 weeks old C57BL/6J mice were administered low dose STZ at 40 mg/kg in citrate buffer for 5 consecutive days to establish a T1D animal model. Mice with blood glucose greater than 16.7 mmol/L at 5 days post last STZ injection were included in the study. These mice were then treated with INGAP-PP (Peptide 1) or Peptide 7 at the doses of 5 mg/kg (2.5 mg/kg, bid (twice a day)) or 25 mg/kg (12.5 mg/kg, bid) for 20 days before sacrifices. Two additional groups of diabetic mice were administered either saline or a peptide (Peptide 3) composed of a scrambled sequence of amino acids from Peptide 1 as control groups. Blood glucose and insulin levels were measured, and 20 days post the last dosing of test agents, an oral glucose tolerance test (OGTT) was performed in 6 hour fasted animals to determine the effect of Peptide 1 and Peptide 7. Blood samples obtained from the tail cut for glucose determination were detected with an ACCU-CHEK™ glucometer (Roche, ACCU-CHEK® Active), and insulin levels were determined with Rat/Mouse Insulin Elisa kit (Millipore, Billerica, Mass. USA). For the OGTT, after the measurement of the basal glucose concentration (T=−30 min), mice received an oral glucose challenge at 2 g/kg and glucose values were determined by glucometer at 0, 15, 30, 60, 90 and 120 min.

[2] = Peptide stability in culture medium (F-12K, 37° C., HPLC); assay type: physicochemical; settings: F-12K medium, 0.25 mg/mL, 0-72 hours, FIG. 2, FIG. 11
Procedure: To determine the stability of peptides in culture medium, a certain amount of selected peptides was accurately weighed and dissolved in distilled water to 5 mg/mL as a stock solution. The stock solution was diluted to 0.25 mg/mL with F-12K medium (Gibco-BRL, Gaithersburg, Md., USA) as working solution. A volume of 100 μL of each working solution was transferred into individual sample vials. The sample vials were incubated in a 37° C. incubator for 0, 24, 48 and 72 hours before being analyzed and quantitated by HPLC. […]

[3] = tested on: normal C57BL/6J mice; assay: Induction of extra islet insulin positive β cell clusters (EIC) in normal C57BL/6J mice; assay type: in vivo, mouse
Procedure: After a 1-week acclimation, female C57BL/6J mice were randomly divided into 6 groups (n=5 per group). The control group received 10 mL/kg sterile normal saline via subcutaneous injection for 10 consecutive days. The other five groups received INGAP-PP (Peptide 1) or INGAP-PP analogs Peptide 12, Peptide 16, Peptide 29 or Peptide 31 at a dose of 50 mg/kg or 5 mg/kg per day, respectively, for the same period. On day 11, the pancreas was removed from each animal, cleared of fat and lymph nodes, weighed, and fixed in 10% neutral buffered formalin (NBF) for no longer than 24 hours before processing for morphometric analysis.
Immunohistochemistry analysis was used to assess the islet neogenic activities of peptides by measuring the number and area of extra islet insulin positive β cell clusters (EIC) of pancreatic tissues harvested from each individual group post 10 day treatment. EIC is indicative of islet neogenesis, as previously described by Lipsett and Finegood (Diabetes 51:1834-1841 (2002)).

## H-IGLHDPSHGTLPNGS-OH [Peptide 1, H-IGLHDPSHGTLPNGS-OH, reference compound]
[1]
  effect on body weight or pancreas weight: did not affect body weight or pancreas weight

## Ac-IGLHDPSHGTLPNGS-OH [Peptide 16, Ac-IGLHDPSHGTLPNGS-OH]
[2]
  stability in culture medium: significantly more stable than INGAP-PP peptide in culture medium

## Ac-IGLHDPSHGTLPNGS-NH2 [Peptide 31, Ac-IGLHDPSHGTLPNGS-NH2]
[3]; analog 5 mg/kg vs INGAP-PP 50 mg/kg, 10 days
  islet neogenesis efficacy relative to INGAP-PP: comparable or improved efficacy was achieved at a dose one tenth of INGAP-PP
[3]; female C57BL/6J mice, 10 days sc, INGAP-PP 50 mg/kg, analogs 5 mg/kg per day, FIG. 9A
  number of extra islet cluster (EIC): statistically greater than that of INGAP-PP (Peptide 1) (50 mg/kg) treated group
[3]; female C57BL/6J mice, 10 days sc, INGAP-PP 50 mg/kg, analogs 5 mg/kg per day, FIG. 9B
  total area of EIC: statistically greater than that of INGAP-PP (Peptide 1) (50 mg/kg) treated group

Source: patent publication US9388215B2, “Compositions and methods of using islet neogenesis peptides and analogs thereof” (SHENZHEN HIGHTIDE BIOPHARMACEUTICAL, LTD., priority 2013, dated 2016)
